Measurements taken from patent publication US20220096461A1, “LIQUID ORAL DOSAGE FORMULATIONS OF METHYLNALTREXONE” (Bausch Health Ireland Limited, priority 2019, published 2022).

What was measured:
[1] = Partition coefficient between octanol and water (Log P); type: physicochemical; settings: n-octanol/water; ratios 9:1, 7:3, 1:1; HPLC
Procedure: To determine the partition coefficient of each ion pair, about 15 mg of each ion pair was dissolved in separate 100 ml portions of n-octanol (previously saturated with water). Three n-octanol solutions were prepared for each ion pair. Mixtures having three different volumetric ratios of n-octanol to water (9:1, 7:3, and 1:1) were prepared by adding water and agitating the mixtures on a bench top agitator for two hours. After agitation, samples from each mixture were centrifuged for 10 min at 10,000 rpm to separate aqueous and n-octanol phase. The concentration of methylnaltrexone in the aqueous and n-octanol phases was determined by HPLC. Log P was calculated from the ratio of the drug concentration in n-octanol to the drug concentration in water.

[2] = system: opioid-induced constipation; settings: 12 mg subcutaneous injection; patients with chronic non-cancer pain; cited from earlier work

Molecule	LogP [1]	Patients with three or more spontaneous bowel movements each week for four weeks [2] [%]
CCCCC(CC)COC(=O)CC(C(=O)OCC(CC)CCCC)S(=O)(=O)[O-].C[N+]1(CC2CC2)CCC23c4c5ccc(O)c4OC2C(=O)CCC3(O)C1C5 (stereo not drawn) [Methylnaltrexone - Docusate]	1.67	–
C[N@+]1(CC2CC2)CC[C@]23c4c5ccc(O)c4O[C@H]2C(=O)CC[C@@]3(O)[C@H]1C5 [methylnaltrexone, (R)—N-methylnaltrexone]	–	59
Methylnaltrexone - Lauryl Sulfate	1.23	–
